From ChEMBL document CHEMBL1955858, “Synthesis and biological evaluation of novel amprenavir-based P1-substituted bi-aryl derivatives as ultra-potent HIV-1 protease inhibitors” (Bioorg Med Chem Lett, 2012)

Key:
[1] = Selectivity index, ratio of CC50 for human C8166 cells to EC50 for HIV1 3B; type: toxicity, cell-based; conditions: read-out: Ratio CC50/EC50
[2] = system: Human immunodeficiency virus 1; test: Antiviral activity against HIV1 3B infected in human C8166 cells assessed as inhibition of syncytia formation after 3 days; type: functional, organism-based; conditions: Human immunodeficiency virus 1, 3B, C8166, 72 h
[3] = Cytostatic activity against human C8166 cells by MTT assay; type: cell-based
[4] = target: Protease (Human immunodeficiency virus 1, UniProt Q9YQ12); test: Inhibition of HIV1 protease using Arg-Glu(EDANS)-Ser-Gln-Asn-Tyr-Pro-Ile-Val-Gln-Lys(DABCYL)- Arg as substrate for 20 to 30 mins by FRET analysis
[5] = system: Human immunodeficiency virus 1; test: Ratio of amprenavir EC50 to compound EC50 for HIV1 3B; type: functional
[6] = target: Protease (Human immunodeficiency virus 1) (UniProt Q9YQ12); test: Ratio of amprenavir Ki to compound Ki for HIV1 protease
Protease (Human immunodeficiency virus 1), sequence (Q9YQ12 as listed by the source): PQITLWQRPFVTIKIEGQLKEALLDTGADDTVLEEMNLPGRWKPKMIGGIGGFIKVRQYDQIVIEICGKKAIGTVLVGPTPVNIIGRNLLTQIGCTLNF

Protease, sequence (Q9YQ12 whole entry): as the sequence (Q9YQ12 as listed by the source) above

COc1ccc(S(=O)(=O)N(CC(C)C)C[C@@H](O)[C@H](Cc2ccc(-c3ccc(Cl)cc3)cc2)NC(=O)O[C@H]2CCOC2)cc1
selectivity ratio [1]: 53600
EC50 [2]: 4.29 nM
CC50 [3]: 230 µM
Ki [4]: 6.4 nM

CC(C)CN(C[C@@H](O)[C@H](Cc1ccccc1)NC(=O)O[C@H]1CCOC1)S(=O)(=O)c1ccc(N)cc1 [AMPRENAVIR]
selectivity ratio [1]: 78500
EC50 [2]: 2.93 nM
CC50 [3]: 230 µM
Ki [4]: 0.84 nM

COc1ccc(S(=O)(=O)N(CC(C)C)C[C@@H](O)[C@H](Cc2ccc(-c3ccc(SC)cc3)cc2)NC(=O)O[C@H]2CCOC2)cc1
selectivity ratio [1]: 34800
EC50 [2]: 6.89 nM
CC50 [3]: 240 µM
Ki [4]: 7.4 nM

COc1ccc(S(=O)(=O)N(CC(C)C)C[C@@H](O)[C@H](Cc2ccc(-c3ccc(OC)c(C)c3)cc2)NC(=O)O[C@H]2CCOC2)cc1
selectivity ratio [1]: 46800
EC50 [2]: 3.63 nM
CC50 [3]: 170 µM
Ki [4]: 1.8 nM

COc1ccc(S(=O)(=O)N(CC(C)C)C[C@@H](O)[C@H](Cc2ccc(-c3cccc(C#N)c3)cc2)NC(=O)O[C@H]2CCOC2)cc1
selectivity ratio [1]: 34800
EC50 [2]: 9.2 nM
CC50 [3]: 320 µM
Ki [4]: 8.1 nM

CC(C)CN(C[C@@H](O)[C@H](Cc1ccc(-c2ccncc2)cc1)NC(=O)O[C@H]1CCOC1)S(=O)(=O)c1ccc(N)cc1
selectivity ratio [1]: 2.6e+06
EC50 [2]: 0.1 nM
Ratio EC50 [5]: 30
CC50 [3]: 260 µM
Ki [4]: 0.086 nM

COc1ccc(S(=O)(=O)N(CC(C)C)C[C@@H](O)[C@H](Cc2ccc(-c3ccsc3)cc2)NC(=O)O[C@H]2CCOC2)cc1
selectivity ratio [1]: 35700
EC50 [2]: 4.48 nM
CC50 [3]: 160 µM
Ki [4]: 3.5 nM

COc1ccc(S(=O)(=O)N(CC(C)C)C[C@@H](O)[C@H](Cc2ccc(-c3ccc(OC(F)(F)F)cc3)cc2)NC(=O)O[C@H]2CCOC2)cc1
selectivity ratio [1]: 28100
EC50 [2]: 6.04 nM
CC50 [3]: 170 µM
Ki [4]: 5.2 nM

COc1ccc(S(=O)(=O)N(CC(C)C)C[C@@H](O)[C@H](Cc2ccc(-c3ccncc3)cc2)NC(=O)O[C@H]2CCOC2)cc1
selectivity ratio [1]: 97000
EC50 [2]: 2.68 nM
CC50 [3]: 260 µM
Ki [4]: 3.8 nM

COc1ccc(S(=O)(=O)N(CC(C)C)C[C@@H](O)[C@H](Cc2ccc(-c3cccnc3)cc2)NC(=O)O[C@H]2CCOC2)cc1
selectivity ratio [1]: 68200
EC50 [2]: 3.08 nM
CC50 [3]: 210 µM
Ki [4]: 1.6 nM

COc1ccc(S(=O)(=O)N(CC(C)C)C[C@@H](O)[C@H](Cc2ccc(-c3ccc(F)cc3)cc2)NC(=O)O[C@H]2CCOC2)cc1
selectivity ratio [1]: 35200
EC50 [2]: 3.98 nM
CC50 [3]: 140 µM
Ki [4]: 5.8 nM

CC(C)CN(C[C@@H](O)[C@H](Cc1ccc(-c2ccccc2)cc1)NC(=O)O[C@H]1CCOC1)S(=O)(=O)c1ccc(N)cc1
selectivity ratio [1]: 14200
EC50 [2]: 2.25 nM
CC50 [3]: 32 µM
Ki [4]: 1.98 nM

COC(=O)c1cccc(-c2ccc(C[C@H](NC(=O)O[C@H]3CCOC3)[C@H](O)CN(CC(C)C)S(=O)(=O)c3ccc(OC)cc3)cc2)c1
selectivity ratio [1]: 54900
EC50 [2]: 3.46 nM
CC50 [3]: 190 µM
Ki [4]: 1.6 nM

CC(C)CN(C[C@@H](O)[C@H](Cc1ccc(-c2cccnc2)cc1)NC(=O)O[C@H]1CCOC1)S(=O)(=O)c1ccc(N)cc1
selectivity ratio [1]: 2e+06
EC50 [2]: 0.1 nM
Ratio EC50 [5]: 30
CC50 [3]: 200 µM
Ratio Ki [6]: 2
Ki [4]: 0.33 nM

COc1ccc(S(=O)(=O)N(CC(C)C)C[C@@H](O)[C@H](Cc2ccc(-c3ccc(C(=O)O)cc3)cc2)NC(=O)O[C@H]2CCOC2)cc1
selectivity ratio [1]: 25300
EC50 [2]: 5.53 nM
CC50 [3]: 140 µM
Ki [4]: 1.9 nM

COc1ccc(S(=O)(=O)N(CC(C)C)C[C@@H](O)[C@H](Cc2ccc(-c3cccc(O)c3)cc2)NC(=O)O[C@H]2CCOC2)cc1
selectivity ratio [1]: 9540
EC50 [2]: 4.3 nM
CC50 [3]: 41 µM
Ki [4]: 4.3 nM

COc1ccc(S(=O)(=O)N(CC(C)C)C[C@@H](O)[C@H](Cc2ccc(-c3ccc(C(C)=O)cc3)cc2)NC(=O)O[C@H]2CCOC2)cc1
selectivity ratio [1]: 90500
EC50 [2]: 2.32 nM
CC50 [3]: 210 µM
Ki [4]: 5.8 nM
